Assay [1] relates to SKBR3 (Her2+) cells. In words: In vitro cytotoxicity assay (CCK8 cell viability), SKBR3. It is filed as cell-based. The protocol:
(§1) In this Example, the ability of various antibody-drug conjugates and naked payloads to kill antigen-expressing tumor cells in vitro was assessed.
(§2) SKBR3 (Her2+) cells were seeded in 96 well plates at 8000 cells per well in complete growth media and grown overnight. For cell viability curves, serially diluted conjugates or naked payloads were added to the cells at final concentrations ranging from 100 nM to 5 pM and incubated for 3 days. NCI H929 and NCI H1975 (Her2−) cells were run as negative controls using similar conditions. To measure viability, cells were incubated with CCK8 (Dojindo) for the final 2 hours and the absorbance at 450 nm (OD450) was determined on a Victor (Perkin Elmer). Background OD450 levels determined from digitonin (40 nM) treated cells were subtracted from all wells and viability was expressed as a percentage of the untreated controls. IC50 values were determined from a four-parameter logistic equation over a 10-point response curve (GraphPad Prism). […] The interchain disulfide conjugates had similar IC50 values as the transglutaminase site-specific Diels-Alder conjugates. […] IC50 values are corrected for payload equivalents and the results of other transglutaminase site-specific Diels-Alder conjugates' cell viability are shown in Table 5. […]

Assay [2] has as its system NCI H929 (Her2−) cells. In words: In vitro cytotoxicity assay (CCK8 cell viability), NCI H929 negative control. It is filed as cell-based. Here is the method: as §1, §2

Molecules are shown by their SMILES. Square brackets hold non-standard residues; d marks the D form. Peptide text beside a SMILES is read from it. * marks the point of attachment. Dolaproine = CO[C@@H]([C@@H]1CCCN1)[C@@H](C)C(=O)O; Dil = CC[C@H](C)[C@H](NC)[C@@H](CC(=O)O)OC; X1 = C[C@@H](N*)[C@H](O)c1ccccc1; NMeV = CN[C@H](C(=O)O)C(C)C

Broadly, the IC50 is the point on the concentration scale where inhibition reaches its midpoint. A high value points to weaker potency in that assay.

In the case of `CC[C@H](C)[C@@H]([C@@H](CC(=O)N1CCC[C@H]1[C@H](OC)[C@@H](C)C(=O)N[C@H](C)[C@H](O)c1ccccc1)OC)N(C)C(=O)[C@@H](NC(=O)[C@@H](NC)C(C)C)C(C)C` [MMAE, Monomethyl auristatin E] (H-[NMeV]V[Dil][Dolaproine]-X1), the IC50 in assay [1] (Homo sapiens, SK-BR-3, 72 h) was found to be 0.031 nM; in assay [2] (Homo sapiens, NCI-H929, 72 h) it was 0.209 nM. In addition, the “% Kill” value in assay [1] (SK-BR-3 cells, 3 days incubation, CCK8) came to 97.3%; in assay [2] (NCI H929 cells (HER2-), 3 days incubation, CCK8), 99.7%.
